system: YAP-TEAD interaction; assay: SK-HEP-1 reporter assay (8xTEAD responsive elements driving NanoLuc luciferase); assay type: cell-based; settings: Homo sapiens, SK-HEP1, SK-HEP-1 reporter assay
Protocol: To identify inhibitors of YAP-TEAD interaction, 8×TEAD responsive elements driving the NanoLuc® luciferase gene were stably integrated into SK-HEP-1 cells (ECACC #: 91091816).
For the assay, cells were treated in duplicates with the test compounds in a 10-point dose, with the top concentration starting at 30 μM (final concentration in assay). After a 24 hour incubation at 37° C., 95% rH, and 5% CO2, a luciferase substrate/lysis reagent mix (NanoGlo™, Promega) was added to the cells, allowing the quantification of cellular luciferase activity.
Cell Media: The cells were cultured in the following media: MEM, +10% FBS, +1× GlutaMAX, +1 mM Sodium-Pyruvate, +100 μM Non-essential amino acids, +0.1 mg/ml Hygromycin. The media used for the assay was: MEM (w/o Phenol Red), +10% FBS, +1× GlutaMAX, +1 mM Sodium-Pyruvate, +100 μM Non-essential amino acids, +0.5% Pen/Strep
Reagents: The reagents used are listed below:
Cell culture: The cells were examined using an inverted microscope to check for health and cell density. To dissociate adherent cells, the monolayer of cells was washed once with pre-warmed PBS. After removing the PBS, 3 ml pre-warmed Accutase® was added to a F75 flask, dispersed evenly and the flask was allowed to sit in incubator for ˜4-5 minutes.
When a single cell suspension was obtained, 7 ml of prewarmed growth media was added and resuspended with the cells. The cell suspension was transferred to a sterile 15 ml conical centrifuge tube, and spun for 5 min at 300×g, RT. The supernatant was discarded and the pellet was resuspended in 10 ml of pre-warmed growth media.
The total cell count was determined, and 20 μl of the desired cell number was added to each well of a 384 well plate using a Multidrop Combi. The plates were then incubated for 24 hours at 37° C., 95% rH, and 5% CO2.
Compound treatment: 24 hours after seeding, the cells were treated with compounds.
A 1:333 dilution of compounds, diluted in DMSO, was made to get a final concentration of 0.3% DMSO per well. To transfer the compounds to the assay plate, 120 nl was shot from Labcyte low dead volume plates to the cell plates containing 20 μl media/well with the ECHO 555 liquid handling system.
After treatment, the cells were fed with 20 μl fresh pre-warmed assay media using a Multidrop combi.
The assay plates were then incubated for another 24 h at 37° C., 95% rH, and 5% CO2.
Luciferase readout: 24 h after treatment, the plates were taken out of the incubator and were allowed to equilibrate to RT. 30 μl of NanoGlo® reagent was added to the plates in the dark. Plates were shaken for 20 min on a Teleshake (˜1500 rpm) in the dark. The luminescence was then measured using an EnVision microplate reader. The IC50 values were generated using Genedata Screener®.

Row | SMILES | IC50 [µM]
1 | CN(Cc1conc1C1CC1)C(=O)c1ccc2c(c1)c1cn(C)nc1n2-c1ccc(C(F)(F)F)cc1 [Example B88, N-[(3-cyclopropyl-1,2-oxazol-4-yl)methyl]-N,2-dimethyl-8-[4-(trifluoromethyl)phenyl]-2H,8H-pyrazolo[3,4-b]indole-5-carboxamide] | > 10
2 | Cn1cc2c3cc(C(=O)NCc4cc5ncccc5[nH]4)ccc3n(-c3ccc(C(F)(F)F)cc3)c2n1 [Example B6, 2-methyl-N-({1H-pyrrolo[3,2-b]pyridin-2-yl}methyl)-8-[4-(trifluoromethyl)phenyl]-2H,8H-pyrazolo[3,4-b]indole-5-carboxamide] | 0.1 to 10
3 | Cn1cc2c3cc(C(=O)N[C@H]4c5ccccc5C[C@@H]4O)ccc3n(-c3ccc(C(F)(F)F)cc3)c2n1 (single isomer, unassigned) [Example B2] | 0.1 to 10
4 | Cn1cc2c3cc(C(=O)N[C@@H]4C[C@H](O)[C@H]4n4cccn4)ccc3n(-c3ccc(C(F)(F)F)cc3)c2n1 (relative stereo) [Example B26, N-[(1R,2S,3S)-3-hydroxy-2-(1H-pyrazol-1-yl)cyclobutyl]-2-methyl-8-[4-(trifluoromethyl)phenyl]-2H,8H-pyrazolo[3,4-b]indole-5-carboxamide] | 0.1 to 10
5 | CN(C)c1noc(CCNC(=O)c2ccc3c(c2)c2cn(C)nc2n3-c2ccc(C(F)(F)F)cc2)n1 [B120^] | 0.1 to 10
6 | Cn1cc2c3cc(C(=O)NC4CCCc5c4cnn5C)ccc3n(-c3ccc(C(F)(F)F)cc3)c2n1 (stereo not drawn) [Example B37, 2-methyl-N-(1-methyl-4,5,6,7-tetrahydro-1H-indazol-4-yl)-8-[4-(trifluoromethyl)phenyl]-2H,8H-pyrazolo[3,4-b]indole-5-carboxamide] | 0.1 to 10
7 | CCn1cnnc1CNC(=O)c1ccc2c(c1)c1cn(C)nc1n2-c1ccc(C(F)(F)F)cc1 [B129^] | 0.1 to 10
8 | Cn1cc2c3cc(C(=O)NC(CO)c4ccccn4)ccc3n(-c3ccc(C(F)(F)F)cc3)c2n1 (racemic) [Example 29, N-[2-hydroxy-1-(pyridin-2-yl)ethyl]-2-methyl-8-[4-(trifluoromethyl)phenyl]-2H,8H-pyrazolo[3,4-b]indole-5-carboxamide] | 0.1 to 10
9 | Cc1[nH]cnc1CNC(=O)c1ccc2c(c1)c1cn(C)nc1n2-c1ccc(C(F)(F)F)cc1 [Example B46, 2-methyl-N-[(5-methyl-1H-imidazol-4-yl)methyl]-8-[4-(trifluoromethyl)phenyl]-2H,8H-pyrazolo[3,4-b]indole-5-carboxamide] | 0.1 to 10
10 | Cn1cc2c3cc(C(=O)N4CCC(O)(c5c[nH]nn5)C4)ccc3n(-c3ccc(C(F)(F)F)cc3)c2n1 (stereo not drawn) [Example B74, 1-(2-methyl-8-[4-(trifluoromethyl)phenyl]-2H,8H-pyrazolo[3,4-b]indole-5-carbonyl}-3-(1H-1,2,3-triazol-4-yl)pyrrolidin-3-ol] | 0.1 to 10
11 | Cn1cc2c3cc(C(=O)N[C@@H]4C[C@@H]5OCCC[C@@H]54)ccc3n(-c3ccc(C(F)(F)F)cc3)c2n1 [B114^] | > 10
12 | CC(NC(=O)c1ccc2c(c1)c1cn(C)nc1n2-c1ccc(C(F)(F)F)cc1)c1c[nH]cn1 (stereo not drawn) [Example B5, N-[1-(1H-imidazol-4-yl)ethyl]-2-methyl-8-[4-(trifluoromethyl)phenyl]-2H,8H-pyrazolo[3,4-b]indole-5-carboxamide] | 0.1 to 10
13 | Cn1cc2c3cc(C(=O)NCc4conc4C4CCC4)ccc3n(-c3ccc(C(F)(F)F)cc3)c2n1 [Example B63, N-[(3-cyclobutyl-1,2-oxazol-4-yl)methyl]-2-methyl-8-[4-(trifluoromethyl)phenyl]-2H,8H-pyrazolo[3,4-b]indole-5-carboxamide] | 0.1 to 10
14 | Cn1cc2c3cc(C(=O)N4CCCC(OCC5CC5)C4)ccc3n(-c3ccc(C(F)(F)F)cc3)c2n1 (stereo not drawn) [Example B62, 3-(cyclopropylmethoxy)-1-{2-methyl-8-[4-(trifluoromethyl)phenyl]-2H,8H-pyrazolo[3,4-b]indole-5-carbonyl}piperidine] | > 10
15 | Cn1cc2c3cc(C(=O)NC45CC4COC5(C)C)ccc3n(-c3ccc(C(F)(F)F)cc3)c2n1 (stereo not drawn) [Example B73, N-(2,2-dimethyl-3-oxabicyclo[3.1.0]hexan-1-yl}-2-methyl-8-[4-(trifluoromethyl)phenyl]-2H,8H-pyrazolo[3,4-b]indole-5-carboxamide] | 0.1 to 10
16 | Cn1cc2c3cc(C(=O)NCCc4cc(C5CC5)on4)ccc3n(-c3ccc(C(F)(F)F)cc3)c2n1 [Example B95, N-[2-(5-cyclopropyl-1,2-oxazol-3-yl)ethyl]-2-methyl-8-[4-(trifluoromethyl)phenyl]-2H,8H-pyrazolo[3,4-b]indole-5-carboxamide] | 0.1 to 10
17 | CCn1ncc(CNC(=O)c2ccc3c(c2)c2cn(C)nc2n3-c2ccc(C(F)(F)F)cc2)c1F [B119^] | > 10
18 | Cn1cc2c3cc(C(=O)NC4CCc5cn[nH]c5C4)ccc3n(-c3ccc(C(F)(F)F)cc3)c2n1 (stereo not drawn) [Example B25, 2-methyl-N-(4,5,6,7-tetrahydro-1H-indazol-6-yl)-8-[4-(trifluoromethyl)phenyl]-2H,8H-pyrazolo[3,4-b]indole-5-carboxamide] | 0.1 to 10
19 | Cn1cc2c3cc(C(=O)NC4C5CCOC5C4(C)C)ccc3n(-c3ccc(C(F)(F)F)cc3)c2n1 (stereo not drawn) [Example B87, N-(7,7-dimethyl-2-oxabicyclo[3.2.0]heptan-6-yl}-2-methyl-8-[4-(trifluoromethyl)phenyl]-2H,8H-pyrazolo[3,4-b]indole-5-carboxamide] | 0.1 to 10
20 | Cn1cc2c3cc(C(=O)N4CCCC4C4CCCO4)ccc3n(-c3ccc(C(F)(F)F)cc3)c2n1 (stereo not drawn) [Example B48, 1-{2-methyl-8-[4-(trifluoromethyl)phenyl]-2H,8H-pyrazolo[3,4-b]indole-5-carbonyl}-2-(oxolan-2-yl)pyrrolidine] | 0.1 to 10
21 | CCCn1ncnc1CNC(=O)c1ccc2c(c1)c1cn(C)nc1n2-c1ccc(C(F)(F)F)cc1 [B138^] | 0.1 to 10

Results, then the compound that gave them:

Row | IC50 [µM] | SMILES
22 | 0.1 to 10 | Cn1cc2c3cc(C(=O)NC4(c5ccncc5F)CC4)ccc3n(-c3ccc(C(F)(F)F)cc3)c2n1 [B127^]
23 | 0.1 to 10 | Cn1cc2c3cc(C(=O)NC4CCCc5[nH]ccc54)ccc3n(-c3ccc(C(F)(F)F)cc3)c2n1 (stereo not drawn) [Example B44, 2-methyl-N-(4,5,6,7-tetrahydro-1H-indol-4-yl)-8-[4-(trifluoromethyl)phenyl]-2H,8H-pyrazolo[3,4-b]indole-5-carboxamide]
24 | 0.1 to 10 | Cc1ncncc1[C@@H](C)NC(=O)c1ccc2c(c1)c1cn(C)nc1n2-c1ccc(C(F)(F)F)cc1 [B118^]
25 | 0.01 to 0.1 | Cn1cc2c3cc(C(=O)N(CCO)Cc4ccnn4C)ccc3n(-c3ccc(C(F)(F)F)cc3)c2n1 [Example B27, N-(2-hydroxyethyl)-2-methyl-N-[(1-methyl-1H-pyrazol-5-yl)methyl]-8-[4-(trifluoromethyl)phenyl]-2H,8H-pyrazolo[3,4-b]indole-5-carboxamide]
26 | 0.01 to 0.1 | COc1nn(C)cc1CNC(=O)c1ccc2c(c1)c1cn(C)nc1n2-c1ccc(C(F)(F)F)cc1 [Example B93, N-[(3-methoxy-1-methyl-1H-pyrazol-4-yl)methyl]-2-methyl-8-[4-(trifluoromethyl)phenyl]-2H,8H-pyrazolo[3,4-b]indole-5-carboxamide]
27 | 0.01 to 0.1 | Cn1cc2c3cc(C(=O)NCCc4c[nH]nn4)ccc3n(-c3ccc(C(F)(F)F)cc3)c2n1 [Example B11, 2-methyl-N-[2-(1H-1,2,3-triazol-4-yl)ethyl]-8-[4-(trifluoromethyl)phenyl]-2H,8H-pyrazolo[3,4-b]indole-5-carboxamide]
28 | 0.01 to 0.1 | Cn1cc2c3cc(C(=O)NC(CCO)c4cncs4)ccc3n(-c3ccc(C(F)(F)F)cc3)c2n1 (stereo not drawn) [Example B9, N-[3-hydroxy-1-(1,3-thiazol-5-yl)propyl]-2-methyl-8-[4-(trifluoromethyl)phenyl]-2H,8H-pyrazolo[3,4-b]indole-5-carboxamide]
29 | 0.01 to 0.1 | CC(NC(=O)c1ccc2c(c1)c1cn(C)nc1n2-c1ccc(C(F)(F)F)cc1)c1cc[nH]n1 (stereo not drawn) [Example B39, 2-methyl-N-[1-(lH-pyrazol-5-yl)ethyl]-8-[4-(trifluoromethyl)phenyl]-2H,8H-pyrazolo[3,4-b]indole-5-carboxamide]
30 | 0.01 to 0.1 | Cn1cc2c3cc(C(=O)NC(c4cccnc4)C4CC4)ccc3n(-c3ccc(C(F)(F)F)cc3)c2n1 (stereo not drawn) [Example B55, N-[cyclopropyl(pyridin-3-yl)methyl]-2-methyl-8-[4-(trifluoromethyl)phenyl]-2H,8H-pyrazolo[3,4-b]indole-5-carboxamide]
